Literature values as cited in article PMC9655391 (International Journal of Molecular Sciences, 2022).

Settings: oral administration; ref [16],[20],[21],[22]

bioavailability: 32%
SMILES: CCCCc1nc(Cl)c(CO)n1Cc1ccc(-c2ccccc2-c2nn[nH]n2)cc1 [LP, losartan potassium]
